Reference: the NIST ThermoML archive (doi:10.1021/je100776x)
Numbers after ± are expanded uncertainties.

How the values were obtained:
[1] = Liquid; for mass density: 298.15 K, 101.33 kPa, Vibrating tube method; for Normal boiling temperature: Ebulliometric method (Recirculating still)
[2] = refractive index (Na D-line) (dimensionless); settings: 298.15 K; 101.33 kPa; Liquid; Standard Abbe refractometry

C1=CCCCC1 [cyclohexene]
mass density [1]: 805.69 ± 0.14 kg/m3 | Normal boiling temperature [1]: 82.82 ± 0.21 °C | refractive index [2]: 1.4444 ± 0.0005

CC(=O)CC(C)C [4-methylpentan-2-one]
mass density [1]: 796.03 ± 0.14 kg/m3 | vapor or sublimation pressure ([1]; 343.76 K): 22.45 ± 0.2 kPa | vapor or sublimation pressure ([1]; 346.51 K): 24.97 ± 0.2 kPa | vapor or sublimation pressure ([1]; 349.09 K): 27.43 ± 0.21 kPa | vapor or sublimation pressure ([1]; 351.46 K): 29.98 ± 0.21 kPa | vapor or sublimation pressure ([1]; 353.65 K): 32.46 ± 0.21 kPa | vapor or sublimation pressure ([1]; 355.76 K): 35.07 ± 0.21 kPa | vapor or sublimation pressure ([1]; 357.68 K): 37.44 ± 0.21 kPa | vapor or sublimation pressure ([1]; 359.54 K): 39.99 ± 0.21 kPa | vapor or sublimation pressure ([1]; 361.33 K): 42.54 ± 0.21 kPa | vapor or sublimation pressure ([1]; 362.97 K): 44.96 ± 0.21 kPa | vapor or sublimation pressure ([1]; 364.61 K): 47.52 ± 0.21 kPa | vapor or sublimation pressure ([1]; 366.15 K): 50.02 ± 0.21 kPa | vapor or sublimation pressure ([1]; 367.55 K): 52.44 ± 0.21 kPa | vapor or sublimation pressure ([1]; 369.05 K): 55.08 ± 0.22 kPa | vapor or sublimation pressure ([1]; 370.35 K): 57.48 ± 0.22 kPa | vapor or sublimation pressure ([1]; 371.66 K): 59.96 ± 0.22 kPa | vapor or sublimation pressure ([1]; 372.96 K): 62.51 ± 0.22 kPa | vapor or sublimation pressure ([1]; 374.22 K): 65.08 ± 0.22 kPa | vapor or sublimation pressure ([1]; 375.35 K): 67.44 ± 0.22 kPa | vapor or sublimation pressure ([1]; 376.56 K): 70.07 ± 0.22 kPa | vapor or sublimation pressure ([1]; 377.63 K): 72.41 ± 0.22 kPa | vapor or sublimation pressure ([1]; 378.73 K): 74.98 ± 0.23 kPa | vapor or sublimation pressure ([1]; 379.78 K): 77.41 ± 0.23 kPa | vapor or sublimation pressure ([1]; 380.83 K): 79.93 ± 0.23 kPa | vapor or sublimation pressure ([1]; 381.84 K): 82.44 ± 0.23 kPa | vapor or sublimation pressure ([1]; 382.84 K): 84.96 ± 0.23 kPa | vapor or sublimation pressure ([1]; 383.8 K): 87.44 ± 0.23 kPa | vapor or sublimation pressure ([1]; 384.71 K): 89.85 ± 0.23 kPa | vapor or sublimation pressure ([1]; 385.67 K): 92.47 ± 0.23 kPa | vapor or sublimation pressure ([1]; 386.6 K): 95.07 ± 0.24 kPa | vapor or sublimation pressure ([1]; 387.45 K): 97.46 ± 0.24 kPa | vapor or sublimation pressure ([1]; 387.82 K): 98.52 ± 0.24 kPa | vapor or sublimation pressure ([1]; 388.33 K): 99.98 ± 0.24 kPa | vapor or sublimation pressure ([1]; 388.78 K): 101.33 ± 0.24 kPa | refractive index [2]: 1.3942 ± 0.0005

C1CCCCC1 [cyclohexane]
mass density [1]: 773.82 ± 0.13 kg/m3 | Normal boiling temperature [1]: 80.58 ± 0.2 °C | refractive index [2]: 1.4238 ± 0.0005
